In patent publication US20120040920A1, “OLIGOSACCHARIDE ALDONIC ACIDS AND THEIR TOPICAL USE” (priority 1999, published 2012):

How the values were obtained:
[1] = gel matrix formation on evaporation of an aqueous solution at room temperature; type: physicochemical
From the text: In contrast to an alpha hydroxyacid and polyhydroxyacid, an oligosaccharide aldonic acid can form a gel matrix when its aqueous solution is evaporated at room temperature. The transparent gel obtained retains certain amount of water forming a clear gel matrix. The amount of water retention depends on individual oligosaccharide aldonic acid. Examples of gel matrix preparations are provided below.
In one example, a gel matrix can be formed when aqueous solution comprising an oligosaccharide aldonic acid is evaporated at room temperature. The transparent gel thus obtained retains certain amount of water forming a clear gel matrix. The amount of water retention depends on individual oligosaccharide aldonic acid. For example, maltobionic acid 1 g in a beaker was dissolved in water 1 ml, and the solution thus obtained was left at room temperature. Fifty percent of the original water had been evaporated at the end of 24 hours, and 57% at the end of 48 hours, and 60% at the end of 72 hours, and no more or minimal evaporation of water could be detected after 72 hours. A clear gel film thus obtained contained 29% water complexed with maltobionic acid molecules. In the same manner, lactobionic acid formed a clear gel matrix with 14% water molecules and cellobionic acid formed a transparent gel with 7% water molecules.
A typical experiment to determine a gel matrix formation of an oligosaccharide aldonic acid may be carried out as follows.
Maltobionic acid 1 g in a beaker of 3.6 cm diameter and 3.6 cm height was dissolved in water 1 ml, and the solution thus obtained was left at room temperature between 20-25° C. to allow a slow evaporation of the water. […] The continuous transparent film thus obtained consisted of 71% maltobionic acid and 29% water by weight, and was formed as a complex gel matrix between maltobionic acid molecules and water molecules.

[2] = antioxidant property, anthralin test method; type: physicochemical
From the text: An antioxidant may be defined as a substance capable of preventing or inhibiting oxidation. […] The antioxidant property is readily determined by using any one of the following test methods: prevention or retardation of air oxidation of (a) anthralin, (b) hydroquinone, or (c) banana peel. A freshly prepared anthralin solution or cream is bright yellow, and an air oxidized one is brownish or black. A hydroquinone solution or cream is colorless or white color, and an air oxidized one is brownish or black. A freshly peeled banana peel is light yellow in color and an oxidized one ranges in color from tan, dark tan, brown to brownish black.
Antioxidant property of an oligosaccharide aldonic acid may be determined by utilizing anthralin test method as follows.
Anthralin also known as dithranol is a yellowish powder, and a composition containing anthralin without a suitable antioxidant is chemically unstable even at room temperature. For example, anthralin 0.05% in an oil-in-water cream changed in color from yellow to gray within 24 hours at room temperature, and the cream became brownish within 48 hours. Under anhydrous condition, anthralin 0.05% ointment prepared from white petrolatum 2 parts and mineral oil 1 part by weight changed in color from bright yellow to grayish yellow within 24 hours, and the ointment became brownish after 12 days at room temperature.
Based on the above observations, an oil-in-water cream containing 0.4% anthralin with or without a known antioxidant was used as a positive or vehicle control.

[3] = system: scrotum and perineum itch; assay: topical treatment of scrotum and perineum itch; type: in vivo, human; conditions: 18% oil-in-water cream pH 2.0, person
From the text: Lactobionic acid 54% aqueous solution 30 g was uniformly mixed with an oil-in-water base 60 g. The cream thus prepared had pH 2.0 and contained 18% lactobionic acid.
A subject, having a lasting scrotum and perineum itch after each time taking a shower topically applied the above bionic acid cream to the affected areas of the skin.

[4] = system: circular wounds 0.5 mm in depth; assay: healing of circular 4 mm biopsy punch wounds on forearm; type: in vivo, human; conditions: 2% in distilled water
From the text: A sterile 4 mm skin biopsy punch was used to make two circular wounds 0.5 mm in depth on alcohol-swabbed left forearm of a healthy subject. The wounds were swabbed dry with cotton balls. A control solution containing 0.9% sodium chloride in distilled water was applied to one circular wound, and a test solution containing 2% lactobionic acid in distilled water was applied to the other circular wound. Both wounds were covered with 3M Tegaderm tapes for five days. […] The erythema disappeared from both skin sites at the end of nine days.

[5] = by weight, 1 g acid in 1 ml water evaporated at room temperature

gel matrix formation ([1]; 1 g in 1 ml water, 20-25° C., slow evaporation): clear continuous gel film was formed
acid content of the gel film [1, 5]: 86%
water retained in the gel film (gel matrix) [1, 5]: 14%
SMILES: O=C(O)[C@H](O)[C@@H](O)[C@H](O[C@@H]1O[C@H](CO)[C@H](O)[C@H](O)[C@H]1O)[C@H](O)CO [lactobionic acid]
antioxidant grade ([2]; anthralin and hydroquinone test methods): moderate antioxidant
colour change of anthralin cream ([2]; oil-in-water cream, 0.4% anthralin, test substance 0.1 M, 24 hours): did not change the color
itch [3]: itch stopped immediately
wound healing ([4]; covered five days, end of one week, saline control not epithelialized): healed with re-epithelialization
time to disappearance of erythema ([4]; same at control site): nine
